Reference: EP2154155B1, “Analysis of agonist-activity and antagonist-activity to cytokinin receptor” (Sumitomo Chemical Company, Limited, priority 2001, dated 2002)

Tests used:
[1] = tested on: Arabidopsis thaliana cytokinin receptor AHK2, SEQ ID No: 2, expressed in transformed cell TM182-AHK2; assay: Agonist-activity search: optical density of TM182-AHK2 liquid culture in 96-well plate; assay type: cell-based; conditions: examinee substance 100 µM at the final concentration, DOLU + Glu medium, 30°C, 24 hours, DMSO blank 0.01
[2] = tested on: Arabidopsis thaliana cytokinin receptor AHK3, SEQ ID No: 4, expressed in transformed cell TM182-AHK3; assay: Agonist-activity search: optical density of TM182-AHK3 liquid culture in 96-well plate; assay type: cell-based; conditions: examinee substance 100 µM at the final concentration, DOLU + Glu medium, 30°C, 24 hours, DMSO blank 0.51
[3] = tested on: Arabidopsis thaliana cytokinin receptor AHK2 variant AHK2Δ (partially transmembrane region-deleted type, amino acid number 196 to 1176 of SEQ ID No: 2) …; assay: Agonist-activity search: optical density of TM182-AHK2Δ liquid culture in 96-well plate; conditions: examinee substance 100 µM at the final concentration, DOLU + Glu medium, 30°C, 24 hours, DMSO blank 0
[4] = tested on: Arabidopsis thaliana cytokinin receptor CRE1, SEQ ID No: 6, expressed in transformed cell TM182-CRE1; assay: Growth of transformed yeast cells TM182-CRE1 spotted on DOLU + Glu agar media containing cytokinin; assay type: cell-based; conditions: 30°C, 30 hours; for lowest observed supply concentration in which the transformed cells could be grown: DOLU + Glu agar media, cytokinin 1 nM to 100 µM
Source text: More particularly, for example, in the case of using a transformed cell (that is, a transformed cell having a function of directly controlling the cell growth by intracellular signal transduction from the cytokinin receptor) produced using TM182 (sln1 Δ) [Maeda T et al, Nature 369: 242-245 (1994)], a SLN1 genetically defected strain in which, for example, PTP2 Tyrosine phosphatase gene [Ota et al. Proc. N. A. Sci., USA, 89, 2355-2359 (1992)] is introduced as a host cell, the agonist-activity to the cytokinin receptor may be measured using, as an indicator, the quantity of the cell growth of the transformed cell in a culture medium (an agar culture medium or a liquid culture medium) containing glucose as a carbon source, for example, a DOLU + Glu culture medium. In the case of the DOLU + Glu culture medium to which the examinee substance is added, the examinee substance found capable of growing the transformed cell can be evaluated as a substance having the agonist-activity to the cytokinin receptor. On the other hand, in the case of the DOLU+Glu culture medium to which the examinee substance and a substance having the agonist-activity to the cytokinin receptor are added, the examinee substance found capable of suppressing or inhibiting the growth of the transformed cell can be evaluated as a substance having the antagonist-activity to the cytokinin receptor.
Transformation of TM182 (sln1Δ), SLN1 genetically detected strain, [Maeda T et al. Nature: 369 242-245 (1994)] was carried out using the obtained expression plasmid p415CYC-CRE1 (the example 5), p415CYC-AHK2 (the example 11), p415CYC-AHK2 Δ (the example 11) and p415CYC-AHK3 (the example 8). The transformation was carried out by employing Polyethylene glycol/lithium acetate (PEG/LiAc)-mediated transformation method according to the description of VII. Library Transformation & Screening Protocols disclosed in […] Two-Hybrid System 3 User Manual p.
After incubation, the growth state of the transformed cells was observed and photographed by a digital camera. […]

[5] = tested on: Arabidopsis thaliana cytokinin receptor AHK2, SEQ ID No: 2, expressed in transformed cell TM182-AHK2; conditions: 30°C, 30 hours
Source text: (§1) More particularly, for example, in the case of using a transformed cell (that is, a transformed cell having a function of directly controlling the cell growth by intracellular signal transduction from the cytokinin receptor) produced using TM182 (sln1 Δ) [Maeda T et al, Nature 369: 242-245 (1994)], a SLN1 genetically defected strain in which, for example, PTP2 Tyrosine phosphatase gene [Ota et al. Proc. N. A. Sci., USA, 89, 2355-2359 (1992)] is introduced as a host cell, the agonist-activity to the cytokinin receptor may be measured using, as an indicator, the quantity of the cell growth of the transformed cell in a culture medium (an agar culture medium or a liquid culture medium) containing glucose as a carbon source, for example, a DOLU + Glu culture medium. In the case of the DOLU + Glu culture medium to which the examinee substance is added, the examinee substance found capable of growing the transformed cell can be evaluated as a substance having the agonist-activity to the cytokinin receptor. On the other hand, in the case of the DOLU+Glu culture medium to which the examinee substance and a substance having the agonist-activity to the cytokinin receptor are added, the examinee substance found capable of suppressing or inhibiting the growth of the transformed cell can be evaluated as a substance having the antagonist-activity to the cytokinin receptor. […]

[6] = tested on: Arabidopsis thaliana cytokinin receptor AHK2 variant AHK2Δ (partially transmembrane region-deleted type, amino acid number 196 to 1176 of SEQ ID No: 2) …; assay: Growth of transformed yeast cells TM182-AHK2Δ spotted on DOLU + Glu agar media containing cytokinin; assay type: cell-based; conditions: 30°C, 30 hours
Source text: as §1

[7] = tested on: Arabidopsis thaliana cytokinin receptor AHK3, SEQ ID No: 4, expressed in transformed cell TM182-AHK3; conditions: DOLU + Glu agar media containing 10 µM of trans-zeatin, 30°C, 30 hours, compared with media containing no trans-zeatin
Source text: as §1

[8] = DOLU + Glu agar media, cytokinin 1 nM to 100 µM
[9] = DOLU + Glu agar media containing 10 µM of trans-zeatin, compared with media containing no trans-zeatin

CC1=CC(=O)CC(C)(C)[C@@]1(O)/C=C/C(C)=C\C(=O)O [Compound A, Abscisic acid] was tested, and the “optical density (OD620) of the culture solutions of the transformed cells” value (“optical density (OD620)” for short) [1] was 0.01 and the “optical density (OD620)” value [2] was 0.54.

For c1ccc(CNc2ncnc3nc[nH]c23)cc1 [Compound B, 6-Benzyl aminopurine], the “optical density (OD620)” value [1] was 0.45, the “optical density (OD620)” value [2] was 0.88 and the “optical density (OD620)” value [3] was 0.89.

With C/C(=C/CNc1ncnc2[nH]cnc12)CO [cis-zeatin] the “lowest observed supply concentration in which the transformed cells could be grown” value (from here on “lowest observed supply concentration”) [4] was “no growth” and the “lowest observed supply concentration” value [5, 8] was 10 µ M.

With C/C(=C\CNc1ncnc2[nH]cnc12)CO [trans-zeatin] the “growth state of the transformed cells” value [4, 9] was “high growth”, the “lowest observed supply concentration” value [4] was 10 µ M and the “growth state of the transformed cells” value [5, 9] was “high growth”. For the same compound, the “growth state of the transformed cells” value [6, 9] was “high growth”, the “lowest observed supply concentration” value [6, 8] was 100 nM and the “growth state of the transformed cells” value [7] was “high growth”.
